Measured values from patent US7635716B2, “Substituted cyclopentanes or cyclopentanones as therapeutic agents” (Allergan, Inc., priority 2005, dated 2009).
Where two headings read alike, the source gives them in different places.

Tests used:
hEP4/Gqs5 = target: T1, hEP4/Gqs5 (Homo sapiens, UniProt P35408); assay: FLIPR calcium signal, HEK-293(EBNA) cells; type: cell-based
T1 construct: expressed in transfected cells; host or cells: HEK-293(EBNA) cells
Protocol: (§1) HEK-293(EBNA) cells, stably expressing one type or subtype of recombinant human prostaglandin receptors (prostaglandin receptors expressed: hDP/Gqs5; hEP1; hEP2/Gqs5; hEP3A/Gqi5; hEP4/Gqs5; hFP; hIP; hTP), were cultured in 100 mm culture dishes in high-glucose DMEM medium containing 10% fetal bovine serum, 2 mM 1-glutamine, 250 μg/ml geneticin (G418) and 200 μg/ml hygromycin B as selection markers, and 100 units/ml penicillin G, 100 μg/ml streptomycin and 0.25 μg/ml amphotericin B.
(§2) Cells were seeded at a density of 5×10^4 cells per well in Biocoat® Poly-D-lysine-coated black-wall, clear-bottom 96-well plates (Becton-Dickinson) and allowed to attach overnight in an incubator at 37° C. Cells were then washed two times with HBSS-HEPES buffer (Hanks Balanced Salt Solution without bicarbonate and phenol red, 20 mM HEPES, pH 7.4) using a Denley Cellwash plate washer (Labsystems). After 45 minutes of dye-loading in the dark, using the calcium-sensitive dye Fluo-4 AM at a final concentration of 2 μM, plates were washed four times with HBSS-HEPES buffer to remove excess dye leaving 100 μl in each well. Plates were re-equilibrated to 37° C. for a few minutes.
(§3) Cells were excited with an Argon laser at 488 nm, and emission was measured through a 510-570 nm bandwidth emission filter (FLIPR™, Molecular Devices, Sunnyvale, Calif.). Drug solution was added in a 50 μl volume to each well to give the desired final concentration. The peak increase in fluorescence intensity was recorded for each well. On each plate, four wells each served as negative (HBSS-HEPES buffer) and positive controls (standard agonists: BW245C (hDP); PGE2 (hEP1; hEP2/Gqs5; hEP3A/Gqi5; hEP4/Gqs5); PGF2. (hFP); carbacyclin (hIP); U-46619 (hTP), depending on receptor). The peak fluorescence change in each drug-containing well was then expressed relative to the controls.
(§4) Compounds were tested in a high-throughput (HTS) or concentration-response (CoRe) format. In the HTS format, forty-four compounds per plate were examined in duplicates at a concentration of 10^−5 M. To generate concentration-response curves, four compounds per plate were tested in duplicates in a concentration range between 10^−5 and 10^−11 M. The duplicate values were averaged. In either, HTS or CoRe format each compound was tested on at least 3 separate plates using cells from different passages to give an n≧3.

hEP2/Gqs5 = target: T2, hEP2/Gqs5 (Homo sapiens, UniProt P43116); assay: FLIPR calcium signal, HEK-293(EBNA) cells; type: cell-based; details: Table 1, first part; triplicate; read-out: functional data (EC50) hEP2
T2 construct: expressed in transfected cells; host or cells: HEK-293(EBNA) cells
T2 sequence (P43116 whole entry): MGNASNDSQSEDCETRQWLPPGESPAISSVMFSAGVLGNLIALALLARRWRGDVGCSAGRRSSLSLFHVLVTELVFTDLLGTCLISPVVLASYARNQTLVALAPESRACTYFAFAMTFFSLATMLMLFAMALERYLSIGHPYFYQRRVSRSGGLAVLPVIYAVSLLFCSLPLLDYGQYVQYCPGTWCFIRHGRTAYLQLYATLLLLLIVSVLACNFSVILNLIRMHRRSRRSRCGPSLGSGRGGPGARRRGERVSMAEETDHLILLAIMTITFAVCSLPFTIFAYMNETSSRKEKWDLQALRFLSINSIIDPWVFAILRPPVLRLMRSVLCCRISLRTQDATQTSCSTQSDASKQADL
Protocol: as §1, §2, §3, §4

hEP3A/Gqi5 = target: T3, hEP3A/Gqi5 (Homo sapiens, UniProt P43115); assay: FLIPR calcium signal, HEK-293(EBNA) cells; type: cell-based
T3 construct: expressed in transfected cells; host or cells: HEK-293(EBNA) cells
T3 sequence (P43115 1-390): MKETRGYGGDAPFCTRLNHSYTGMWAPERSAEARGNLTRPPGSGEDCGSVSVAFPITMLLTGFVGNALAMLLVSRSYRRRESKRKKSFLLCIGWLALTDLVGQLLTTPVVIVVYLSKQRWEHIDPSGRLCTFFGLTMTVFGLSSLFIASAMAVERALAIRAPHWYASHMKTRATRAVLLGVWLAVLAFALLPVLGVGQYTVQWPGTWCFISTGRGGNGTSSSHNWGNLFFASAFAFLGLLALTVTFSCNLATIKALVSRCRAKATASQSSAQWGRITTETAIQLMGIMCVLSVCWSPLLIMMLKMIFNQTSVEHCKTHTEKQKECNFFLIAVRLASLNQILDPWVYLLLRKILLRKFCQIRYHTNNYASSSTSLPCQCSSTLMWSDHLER
Protocol: as §1, §2, §3, §4

hDP/Gqs5 = target: T4, hDP/Gqs5 (Homo sapiens, UniProt Q13258); assay: FLIPR calcium signal, HEK-293(EBNA) cells; type: cell-based
T4 construct: expressed in transfected cells; host or cells: HEK-293(EBNA) cells
T4 sequence (Q13258 1-359): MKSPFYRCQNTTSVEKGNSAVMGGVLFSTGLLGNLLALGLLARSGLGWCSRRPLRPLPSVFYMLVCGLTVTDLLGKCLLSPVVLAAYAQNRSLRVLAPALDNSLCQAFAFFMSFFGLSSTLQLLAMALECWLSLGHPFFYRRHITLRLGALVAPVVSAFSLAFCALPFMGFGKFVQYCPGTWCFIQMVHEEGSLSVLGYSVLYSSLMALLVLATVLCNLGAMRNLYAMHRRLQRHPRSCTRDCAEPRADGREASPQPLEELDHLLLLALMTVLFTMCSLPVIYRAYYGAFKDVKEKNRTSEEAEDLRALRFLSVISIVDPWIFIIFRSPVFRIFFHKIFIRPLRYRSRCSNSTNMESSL
Protocol: as §1, §2, §3, §4

hTP = target: T5, hTP (Homo sapiens, UniProt P21731); assay: FLIPR calcium signal, HEK-293(EBNA) cells; type: cell-based
T5 construct: expressed in transfected cells; host or cells: HEK-293(EBNA) cells
T5 sequence (P21731 1-343): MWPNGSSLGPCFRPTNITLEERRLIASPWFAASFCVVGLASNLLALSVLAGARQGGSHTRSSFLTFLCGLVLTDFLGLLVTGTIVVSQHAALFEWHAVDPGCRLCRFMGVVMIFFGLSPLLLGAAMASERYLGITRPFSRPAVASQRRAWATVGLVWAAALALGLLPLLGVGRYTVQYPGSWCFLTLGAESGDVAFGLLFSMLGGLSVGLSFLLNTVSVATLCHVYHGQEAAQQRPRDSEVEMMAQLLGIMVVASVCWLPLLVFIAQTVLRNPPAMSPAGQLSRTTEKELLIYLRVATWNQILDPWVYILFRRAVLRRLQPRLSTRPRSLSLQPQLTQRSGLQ
Protocol: as §1, §2, §3, §4

hFP = target: T6, hFP (Homo sapiens, UniProt P43088); assay: FLIPR calcium signal, HEK-293(EBNA) cells; type: cell-based
T6 construct: expressed in transfected cells; host or cells: HEK-293(EBNA) cells
T6 sequence (P43088 whole entry): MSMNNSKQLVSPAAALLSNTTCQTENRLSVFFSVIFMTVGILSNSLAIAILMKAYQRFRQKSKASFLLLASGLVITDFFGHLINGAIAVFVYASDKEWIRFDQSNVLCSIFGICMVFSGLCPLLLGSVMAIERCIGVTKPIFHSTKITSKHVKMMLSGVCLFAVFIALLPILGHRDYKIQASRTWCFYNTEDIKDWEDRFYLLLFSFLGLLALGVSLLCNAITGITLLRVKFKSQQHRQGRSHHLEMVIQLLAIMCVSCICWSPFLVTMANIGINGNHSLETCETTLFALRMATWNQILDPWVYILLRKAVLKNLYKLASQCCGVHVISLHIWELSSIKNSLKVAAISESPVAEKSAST
Protocol: as §1, §2, §3, §4

[1] = test system: laser-induced hypertensive monkeys; assay: Intraocular pressure (IOP) in laser-induced hypertensive monkeys; type: in vivo, monkey; details: Primates, topical, one single day dose, read-out: maximum IOP decrease from baseline (percent)
Protocol: (§5) (Z)-7-[(1R,2S,3R,5R)-5-Chloro-2-(3,5-dichloro-phenoxymethyl)-3-hydroxy-cyclopentyl]-hept-5-enoic acid (15b) was tested at multiple concentrations in normotensive dogs, dosing once daily for 5 days. At 0.05%, the maximum IOP decrease from baseline was 4.3 mmHg (30%) at 6 h; the maximum OSH score was 0.6 at 6 h. […] This compound was also tested in laser-induced hypertensive monkeys, using one single day dose. At 0.1%, the maximum IOP decrease from baseline was 6 mmHg (19%) at 6 h.
(§6) (Z)-7-[(1R,2S,3R,5R)-5-Chloro-2-(3,5-dichloro-phenoxymethyl)-3-hydroxy-cyclopentyl]-hept-5-enoic acid isopropyl ester (42b) was tested in normotensive dogs at 0.05%, dosing once daily for 5 days. The maximum intraocular pressure (IOP) decrease from baseline was 3 mmHg (19%) at 6 h; the maximum ocular surface hyperemia (OSH) score was 0.6 at 74 h. This compound was also tested in laser-induced hypertensive monkeys, using one single day dose. At 0.01%, the maximum IOP decrease from baseline was 6 mmHg (16%) at 6 h.

normotensive dogs [2] = assay: Intraocular pressure (IOP) in normotensive dogs; type: in vivo, dog; details: Canis lupus familiaris, topical, 120 h, dosing once daily for 5 days, read-out: maximum IOP decrease from baseline (percent)
Protocol: as §5, §6

normotensive dogs [3] = assay: Ocular surface hyperemia (OSH) in normotensive dogs; type: in vivo, dog; parameters: maximum OSH score: scale not given here; details: dosing once daily for 5 days
Protocol: as §5, §6

normotensive dogs [4] = assay: Intraocular pressure (IOP) in normotensive dogs; type: in vivo, dog; details: Canis lupus familiaris, topical, 120 h, dosing once daily for 5 days, read-out: maximum IOP decrease from baseline (percent); remark: listed apart in the source

T1 sequence (P35408 whole entry): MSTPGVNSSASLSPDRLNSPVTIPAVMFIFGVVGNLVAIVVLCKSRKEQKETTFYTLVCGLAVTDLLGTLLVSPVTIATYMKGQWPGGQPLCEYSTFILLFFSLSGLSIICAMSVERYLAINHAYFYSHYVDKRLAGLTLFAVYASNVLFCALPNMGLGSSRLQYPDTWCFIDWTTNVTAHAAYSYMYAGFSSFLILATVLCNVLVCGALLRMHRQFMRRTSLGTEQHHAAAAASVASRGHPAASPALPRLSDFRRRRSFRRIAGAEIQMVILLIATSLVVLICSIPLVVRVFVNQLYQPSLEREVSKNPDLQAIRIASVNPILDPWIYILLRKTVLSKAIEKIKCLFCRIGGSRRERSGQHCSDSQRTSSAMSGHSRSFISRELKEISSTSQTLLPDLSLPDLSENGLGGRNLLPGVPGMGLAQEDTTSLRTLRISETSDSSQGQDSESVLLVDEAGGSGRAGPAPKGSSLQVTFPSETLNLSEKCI

With `COC(=O)CCC/C=C\C[C@@H]1[C@@H](COc2cc(Cl)cc(Cl)c2)[C@H](O)C[C@H]1Cl` [Example 11, (Z)-7-[(1R,2S,3R,5R)-5-Chloro-2-(3,5-dichloro-phenoxymethyl)-3-hydroxy-cyclopentyl]-hept-5-enoic acid methyl ester] the EC50 (hEP4/Gqs5; Table 1, first part, triplicate, read-out: functional data (EC50) hEP4) was greater than 10 µM, the EC50 (hEP4/Gqs5; Table 1, second part, read-out: hEP4 flipr EC50) was greater than 10 µM and the EC50 (hEP2/Gqs5) was 0.616 µM. It also gave an EC50 (hEP3A/Gqi5; Table 1, first part, data represents a single experiment, read-out: functional data (EC50) hEP3A*) of 9.87 µM, an EC50 (hEP3A/Gqi5; Table 1, second part, quantity not given, values match functional data (EC50) of first part, read-out: Other Receptors hEP3) of 9.87 µM and an EC50 (hDP/Gqs5; Table 1, first part, triplicate, read-out: functional data (EC50) hDP) greater than 10 µM. For the same compound, the EC50 (hDP/Gqs5; Table 1, second part, quantity not given, values match functional data (EC50) of first part, read-out: Other Receptors hDP) was greater than 10 µM, the EC50 (hTP; Table 1, first part, triplicate, read-out: functional data (EC50) hTP) was greater than 10 µM and the EC50 (hTP; Table 1, second part, quantity not given, values match functional data (EC50) of first part, read-out: Other Receptors hTP) was greater than 10 µM. It also gave an EC50 (hFP; Table 1, first part, triplicate, read-out: functional data (EC50) hFP) greater than 10 µM and an EC50 (hFP; Table 1, second part, quantity not given, values match functional data (EC50) of first part, read-out: Other Receptors hFP) greater than 10 µM.
`O=C(O)CCC/C=C\C[C@@H]1[C@@H](COc2ccc(CO)cc2)[C@H](O)C[C@H]1Cl` [Example 43, (Z)-7-[(1R,2S,3R,5R)-5-Chloro-3-hydroxy-2-(4-hydroxymethyl-phenoxymethyl)-cyclopentyl]-hept-5-enoic acid] was tested, and the inhibition in vivo at 0.1 % [1] was 6%, the inhibition in vivo at 0.1 % (normotensive dogs [2]) was 20% and the “maximum OSH score” value (normotensive dogs [3]; 0.1%) was 0.6. The “time of maximum OSH score” value (normotensive dogs [3]; 0.1%) was 98 h.
`CC(C)OC(=O)CCC/C=C\C[C@@H]1[C@@H](COc2cc(Cl)cc(Cl)c2)[C@H](O)C[C@H]1Cl` [Example 67, (Z)-7-[(1R,2S,3R,5R)-5-Chloro-2-(3,5-dichloro-phenoxymethyl)-3-hydroxy-cyclopentyl]-hept-5-enoic acid isopropyl ester] was tested, and the inhibition in vivo at 0.01 % ([1]; 0.01%) was 16%, the inhibition in vivo at 0.05 % (normotensive dogs [2]; 0.05%) was 19% and the “maximum OSH score” value (normotensive dogs [3]; 0.05%) was 0.6. The “time of maximum OSH score” value (normotensive dogs [3]; 0.05%) was 74 h.
With `CC(C)OC(=O)CCC/C=C\C[C@@H]1[C@@H](COc2cc(C(F)(F)F)cc(C(F)(F)F)c2)[C@H](O)C[C@H]1Cl` [Example 68, (Z)-7-[(1R,2S,3R,5R)-2-(3,5-Bis-trifluoromethyl-phenoxymethyl)-5-chloro-3-hydroxy-cyclopentyl]-hept-5-enoic acid isopropyl ester] the inhibition in vivo at 0.03 % ([1]; 0.03%) was 11%, the inhibition in vivo at 0.03 % (normotensive dogs [4]) was 14% and the “maximum OSH score” value (normotensive dogs [3]; 0.03%) was 0.7. The “time of maximum OSH score” value (normotensive dogs [3]; 0.03%) was 78 h.
For `CC(C)OC(=O)CCC/C=C\C[C@@H]1[C@@H](COc2cccc(C(F)(F)F)c2)[C@H](O)C[C@H]1Cl` [Example 69, (Z)-7-[(1R,2S,3R,5R)-5-Chloro-3-hydroxy-2-(3-trifluoromethyl-phenoxymethyl)-cyclopentyl]-hept-5-enoic acid isopropyl ester], the inhibition in vivo at 0.1 % [1] was 14%, the inhibition in vivo at 0.1 % (normotensive dogs [2]) was 19% and the “maximum OSH score” value (normotensive dogs [3]; 0.1%) was 0.6. The “time of maximum OSH score” value (normotensive dogs [3]; 0.1%) was 50 h.
In the case of `Cc1cc(C)cc(OC[C@@H]2[C@@H](C/C=C\CCCC(=O)OC(C)C)[C@H](Cl)C[C@H]2O)c1` [Example 70, (Z)-7-[(1R,2S,3R,5R)-5-Chloro-2-(3,5-dimethyl-phenoxymethyl)-3-hydroxy-cyclopentyl]-hept-5-enoic acid isopropyl ester], the inhibition in vivo at 0.1 % [1] is reported as 23%, the inhibition in vivo at 0.1 % (normotensive dogs [2]) is reported as 30% and the “maximum OSH score” value (normotensive dogs [3]; 0.1%) is reported as 0.9. The “time of maximum OSH score” value (normotensive dogs [3]; 0.1%) was 74 h.
With `CC(C)OC(=O)CCC/C=C\C[C@@H]1[C@@H](COc2ccc(CO)cc2)[C@H](O)C[C@H]1Cl` [Example 71, (Z)-7-[(1R,2S,3R,5R)-5-Chloro-3-hydroxy-2-(4-hydroxymethyl-phenoxymethyl)-cyclopentyl]-hept-5-enoic acid isopropyl ester] the inhibition in vivo at 0.1 % [1] was 16%, the inhibition in vivo at 0.1 % (normotensive dogs [2]) was 33% and the “maximum OSH score” value (normotensive dogs [3]; 0.1%) was 0.6. The “time of maximum OSH score” value (normotensive dogs [3]; 0.1%) was 30 h.
